Assay results: US20110124588A1, “SYNERGISTIC ACTIVE INGREDIENT COMBINATIONS” (Bayer Cropscience AG, priority 2008, published 2011)
Where two headings read alike, the source gives them in different places.

Assays:
[1] = system: Spodoptera frugiperda; assay: Spodoptera frugiperda larvae test (sprayed cabbage leaves); assay type: in vivo, army worm (Spodoptera frugiperda) larvae
Text: (§1) The expected activity of a given combination of two active compounds can be calculated as follows, according to S. R. Colby, Weeds 15 (1967), 20-22:
(§2) X is the kill rate, expressed as a percentage of the untreated control, when employing active compound A at an application rate of m g/ha or in a concentration of m ppm, Y is the kill rate, expressed as a percentage of the untreated control, when employing active compound B at an application rate of n g/ha or in a concentration of n ppm and E is the kill rate, expressed as a percentage of the untreated control, when employing active compounds A and B at application rates of m and n g/ha or in a concentration of m and n ppm, then
(§3) If the actual kill rate exceeds the calculated value, the kill of the combination is superadditive, i.e. a synergistic effect is present. In this case, the actually observed kill rate must exceed the value calculated using the above formula for the expected kill rate (E).
(§4) solvents: 78 parts by weight of acetone • • 1.5 parts by weight of dimethylformamide emulsifier: 0.5 part by weight of alkylaryl polyglycol ether
(§5) To produce a suitable preparation of active compound, 1 part by weight of active compound is mixed with the stated amounts of solvents and emulsifier, and the concentrate is diluted with emulsifier-containing water to the desired concentration.
Cabbage leaves (Brassica oleracea) are treated by spraying with the active compound preparation of the desired concentration and are populated with larvae of the army worm (Spodoptera frugiperda) while the leaves are still moist.
After the desired period of time, the kill in % is determined 100% means that all caterpillars have been killed; 0% means that none of the caterpillars have been killed. The kill rates determined are entered into Colby's formula.

[2] = system: Phaedon cochleariae; assay: Phaedon cochleariae larvae test (sprayed cabbage leaves); assay type: in vivo, mustard beetle (Phaedon cochleariae) larvae
Experimental: as §3
Solvents: 78 parts by weight of acetone • • 1.5 parts by weight of dimethylformamide Emulsifier: 0.5 part by weight of alkylaryl polyglycol ether
After the desired period of time, the kill in % is determined 100% means that all beetle larvae have been killed; 0% means that none of the beetle larvae have been killed. The kill rates determined are entered into Colby's formula.

[3] = system: Tetranychus urticae; assay: Tetranychus urticae test (OP-resistant/spray treatment); assay type: in vivo, greenhouse red spider mite (Tetranychus urticae); details: Tetranychus urticae, 144 h; single active compound, 0.8 g/ha, after 6 d; read-out: Kill in % after 6 d
Text: as §1, §2, §3, §4, §5
Discs of bean leaves (Phaseolus vulgaris) which are infested by all stages of the greenhouse red spider mite (Tetranychus urticae) are sprayed with an active compound preparation of the desired concentration.
After the desired period of time, the activity in % is determined 100% means that all spider mites have been killed; 0% means that none of the spider mites have been killed.

[4] = system: Myzus persicae; assay: Myzus persicae test (spray treatment of infested cabbage leaves); assay type: in vivo, green peach aphid (Myzus persicae)
Experimental: as §3, §4
After the desired period of time, the kill in % is determined 100% means that all aphids have been killed; 0% means that none of the aphids have been killed. The kill rates determined are entered into Colby's formula.

[5] = single active compound, 0.8 g/ha, 6 d
[6] = Myzus persicae, 144 h, read-out: Kill in % after 6 d
[7] = single active compound, 0.8 g/ha, 2 d
[8] = Phaedon cochleariae, 144 h, single active compound, 100 g/ha, 6 d, read-out: Kill in % after 6 d
[9] = Myzus persicae, 24 h, read-out: Kill in % after 1 d

N#Cc1ccc(CC(=NNC(=O)Nc2ccc(OC(F)(F)F)cc2)c2cccc(C(F)(F)F)c2)cc1 (mixture of isomers) [metaflumizone]
pest or weed control at 4 g/ha ([1]; Spodoptera frugiperda, 144 h, single active compound, 4 g/ha, 6 d, read-out: Kill in % after 6 d): 0%

CN1CN(C)/C(=N\[N+](=O)[O-])N(Cc2cnc(Cl)s2)C1 [AKD 1022]
Kill in % after 6 d [2, 5]: 0%

Cc1cc(C)c([S+]([O-])CC(F)(F)F)cc1-n1cnc(C(F)(F)F)n1 (stereo not shown) [II-29-31, 1-{2,4-dimethyl-5-[(2,2,2-trifluoroethyl)sulphinyl]phenyl}-3-(trifluoromethyl)-1H-1,2,4-triazole]
pest or weed control at 0.8 g/ha [3]: 60%

CNC(=O)c1cc(Cl)cc(C)c1NC(=O)c1cc(Br)nn1-c1ncccc1Cl [Rynaxapyr, Chlorantraniliprole]
pest or weed control at 0.16 g/ha ([1]; Spodoptera frugiperda, 48 h, read-out: Kill in % after 2 d): 33% | pest or weed control at 0.032 g/ha [4, 6]: 0%

COP(=O)(NC(C)=O)SC (stereo not shown) [acephate]
pest or weed control at 100 g/ha ([2]; Phaedon cochleariae, 144 h, read-out: Kill in % after 6 d): 0%

C/C(=N\C#N)N(C)Cc1ccc(Cl)nc1 [acetamiprid]
pest or weed control at 0.032 g/ha [4, 6]: 0%

CC1(C)C(C=C(Cl)Cl)C1C(=O)OC(C#N)c1cccc(Oc2ccccc2)c1 (stereo not drawn) [alpha-cypermethrin]
pest or weed control at 0.16 g/ha ([2]; Phaedon cochleariae, 144 h, single active compound, 6 d, read-out: Kill in % after 6 d): 0% | Kill in % after 2 d [2, 7]: 0% | pest or weed control at 0.0064 g/ha [4, 6]: 0%

CC(C)N1C(=O)N(c2ccccc2)CS/C1=N\C(C)(C)C [buprofezin]
pest or weed control at 100 g/ha [2, 8]: 0% | pest or weed control at 4 g/ha [4, 9]: 0%

CCOP(=S)(OCC)Oc1nc(Cl)c(Cl)cc1Cl [chlorpyrifos]
Kill in % after 6 d ([1]; single active compound, 4 g/ha, 6 d): 33% | Kill in % after 6 d ([4]; single active compound, 0.16 g/ha, 6 d): 0% | Kill in % after 6 d [4, 5]: 0%

CN/C(=N\[N+](=O)[O-])NCc1cnc(Cl)s1 [clothianidin]
pest or weed control at 4 g/ha ([2]; Phaedon cochleariae, 144 h, single active compound, 4 g/ha, 6 d, read-out: Kill in % after 6 d): 50% | pest or weed control at 0.16 g/ha [4, 6]: 40%

Cc1cc(C(F)(C(F)(F)F)C(F)(F)F)ccc1NC(=O)c1cccc(Cl)c1C(=O)N[C@@H](C)CS(C)(=O)=O [compound II-28-2]
pest or weed control at 0.8 g/ha ([2]; Phaedon cochleariae, 144 h, single active compound, 0.8 g/ha, 6 d, read-out: Kill in % after 6 d): 0% | pest or weed control at 0.16 g/ha ([1]; Spodoptera frugiperda, 144 h, single active compound, 0.16 g/ha, 6 d, read-out: Kill in % after 6 d): 50% | pest or weed control at 0.032 g/ha ([4]; Myzus persicae, 144 h, single active compound, 0.032 g/ha, 6 d, read-out: Kill in % after 6 d): 0%

CN(Cc1ccc(Cl)nc1)C1=CC(=O)OC1 [compound II-29-28, 4-{[(6-chloropyrid-3-yl)methyl](methyl)amino}furan-2(5H)-one]
pest or weed control at 0.16 g/ha ([4]; Myzus persicae, 144 h, single active compound, 0.16 g/ha, 6 d, read-out: Kill in % after 6 d): 0%

O=C1C=C(N(Cc2ccc(Cl)nc2)CC(F)F)CO1 [compound II-29-29, 4-{[(6-chloropyrid-3-yl)methyl](2,2-difluoroethyl)amino}furan-2(5H)-one]
pest or weed control at 100 g/ha [2, 8]: 67% | pest or weed control at 0.8 g/ha [4, 6]: 50%

CNC(=O)c1cc(C#N)cc(C)c1NC(=O)c1cc(Br)nn1-c1ncccc1Cl [cyazypyr, Cyantraniliprole]
pest or weed control at 0.16 g/ha ([2]; Phaedon cochleariae, 48 h, single active compound, 2 d, read-out: Kill in % after 2 d): 17% | pest or weed control at 0.16 g/ha [4, 9]: 0%

CC1(C)C(C=C(Cl)Cl)C1C(=O)OC(C#N)c1cccc(Oc2ccccc2)c1 (stereo not shown) [cypermethrin]
Kill in % after 2 d [2, 7]: 50% | pest or weed control at 0.8 g/ha ([1]; Spodoptera frugiperda, 144 h, read-out: Kill in % after 6 d): 50% | pest or weed control at 0.032 g/ha [4, 6]: 0% | pest or weed control at 0.16 g/ha [4, 6]: 0%

Nc1nc(N)nc(NC2CC2)n1 [cyromazine]
pest or weed control at 20 g/ha ([2]; Phaedon cochleariae, 144 h, single active compound, 20 g/ha, 6 d, read-out: Kill in % after 6 d): 0% | pest or weed control at 0.16 g/ha [4, 6]: 0% | pest or weed control at 0.8 g/ha [4, 6]: 0%

CC[S+]([O-])c1c(C#N)nn(-c2c(Cl)cc(C(F)(F)F)cc2Cl)c1N (stereo not shown) [ethiprole]
pest or weed control at 0.8 g/ha [4, 6]: 0%

N#Cc1nn(-c2c(Cl)cc(C(F)(F)F)cc2Cl)c(N)c1[S+]([O-])C(F)(F)F (stereo not shown) [fipronil]
pest or weed control at 0.8 g/ha [4, 6]: 0%
